Experimental data from patent US20250079000A1, “METHODS AND MARKERS FOR DIAGNOSIS OF PARKINSON'S DISEASE” (Berg LLC, priority 2021, published 2025).

What was measured:
[1] = Stability of NAP spiked in human plasma (short-term, long-term, freeze-thaw, re-injection); type: in vitro ADME
From the text: (§1) Detection and Quantitation of NAP using LC-MS/MS. To quantify NAP in human K2-EDTA plasma, the quantification method using LC-MS/MS was developed. Due to low circulating levels of NAP, the sensitivity of quantification was improved using derivatization of isobutyl chloroformate in the sample preparation. The validation performance of the NAP assay is summarized in Table 8-15, including linearity, precision, matrix effect, system suitability, short-term stability, long-term stability, and reproducibility in the autosampler. […] The results of validation assessed by QCs met acceptance criteria (Table 9-15).

[2] = Short-term and long-term stability of NAP spiked in 2.5% BSA standard solution; type: physicochemical; conditions: for Bias %, long-term stability: LTS (88 days, −80 C.); for Bias %, short-term stability: STS (24 hrs, 5 C.)
From the text: as §1

[3] = NCAM short-term stability in plasma QC samples; type: in vitro ADME, human; conditions: HQC, MQC, LQC; 4° C. and 24° C.; 2, 4 and 24 hours; acceptance criteria −25% to 25%
Method: In the short-term stability test, three levels of QC samples were thawed from the −80° C. freezer and incubated at 4° C. or RT (18-24° C.) for 2, 4 or 24 h. The samples were then assayed and compared with samples freshly thawed from the −80° C. freezer and assayed along with the samples incubated at different conditions on the day of the assay.
Precision analyses were performed at high, medium and low concentrations (HQC, MQC, and LQC, respectively). For each concentration, twelve experiments were performed. […] Accuracy analyses were performed at two concentrations of NCAM: 10,000 pg/mL and 2,000 pg/mL. Five experiments were performed at each concentration. Recovery percentages for all experiments at both concentrations (FIG. 28C) were within the acceptance criteria of greater than or equal to 80% and less than or equal to 120%. Parallelism analyses were performed using six individual plasma samples at four dilutions. Recovery percentages (FIG. 28D) were within the acceptance criteria of greater than or equal to 75% and less than or equal to 125% for all samples tested at each of the four dilutions. Short-term stability analyses were performed at two temperatures: 4° C. and 24° C. For each temperature, high, medium and low concentration samples (HQC, MQC, and LQC, respectively) were maintained at 2 hours, 4 hours, and 24 hours.

[4] = HQC, expected value 54.2 ng/mL, acceptable range 27.8-80.7
[5] = LQC, expected value 3.2 ng/mL, acceptable range 2.33-4.03

Mean concentration, freeze-thaw stability (4x) [1, 4] [ng/mL]	Mean concentration, long-term stability (84 days, −80° C.) [1, 4] [ng/mL]	Mean concentration, re-injection stability in autosampler (8 days) [1, 4] [ng/mL]	Mean concentration, short-term stability (24 h, RT) [1, 4] [ng/mL]	Mean concentration, freeze-thaw stability (4x) [1, 5] [ng/mL]	Mean concentration, long-term stability (84 days, −80° C.) [1, 5] [ng/mL]	Mean concentration, re-injection stability in autosampler (8 days) [1, 5] [ng/mL]	Mean concentration, short-term stability (24 h, RT) [1, 5] [ng/mL]	Bias %, long-term stability ([2]; L1, 1.0 ng/mL) [%]	Bias %, long-term stability ([2]; L8, 85.0 ng/mL) [%]	Bias %, short-term stability ([2]; L1, 1.0 ng/mL) [%]	Bias %, short-term stability ([2]; substock, 2000 ng/mL) [%]	Compound	Short-term stability of plasma samples [3]
42.4	63.4	46.5	41.0	3.1	3.2	3.2	3.1	10.6	−8.1	−3.6	−6.7	CC(=O)NCCCCN [NAP, N-acetyl putrescine]	–
–	–	–	–	–	–	–	–	–	–	–	–	P13591 (NCAM): Neural Cell Adhesion Molecule 1, cell adhesion protein, Uniprot P13591	within acceptance criteria
